pIC50: −log10 of the molar value.

15 compounds from patent US12240844B2 (Voronoi, Inc., priority 2019, dated 2025) can be followed below.

One test addresses LRRK2 (Homo sapiens, UniProt Q5S007). The test can be described thus: LRRK2 enzyme inhibition, ADP-Glo kinase assay. It counts as biochemical. On the set-up: purchased Invitrogen PR8604B. In outline: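 Purified human LRRK2 (25 ng) in 40 mM Tris-HCl pH7.4, 20 mM MgCl2, 0.5 mg/ml BSA, 50 μM DTT with 10 μM ATP and substrate ([…]), 2 h at 25° C. Final compound 50 to 0.000001024 μM, 12-point dilution. ADP-Glo luminescence vs solvent control; IC50 (nM).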

The subject of a further test is human DYRK1A and Tau. In words: Tau phosphorylation inhibition, ClariCELL Kinase Cell-Based Assay (Carnabio). Here is the method:
Tau phosphorylation inhibitory efficacy was measured using the ClariCELL™ Kinase Cell-Based Assay service of Carnabio, located in the United States. The compounds are exposed to human embryonic kidney ([…]) cells transiently expressing human DYRK1A and Tau, and then the cells are lysed to release cellular proteins. At this time, the released Tau is captured on a plate, and the degree of phosphorylation is quantified by ELISA using an antibody specific for Tau phosphorylation.

A further test deals with T1, human GST-CLK1 (129-end) (Homo sapiens, UniProt P49759).
T1 construct: purified human GST-CLK1 (129-end, Signalchem) enzyme; GST; purchased Signalchem
In words: GST-CLK1 enzyme inhibition, ADP-Glo kinase assay. It counts as biochemical. As to conditions: ATP 10 uM. In a few lines: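 GST-CLK1 (129-end, 3 ng) reacted with 10 uM ATP and substrate in 40 mM Tris-HCl pH 7.4, 20 mM MgCl2, 0.5 mg/mL BSA, 50 uM DTT, 1 h at 25° C. ADP-Glo luminescence normalised to solvent control; IC50 from triplicate data.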

Test [1] has as its target T2, human GST-DYRK1A (full length) (Homo sapiens, UniProt Q13627).
T2 construct: purified human GST-DYRK1A (full length, Thermo scientifics) enzyme; GST; purchased Thermo scientifics
In words: GST-DYRK1A enzyme inhibition, ADP-Glo kinase assay. It counts as biochemical. As to conditions: read-out: DYRK1 IC50. In a few lines: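 Full-length human GST-DYRK1A (10 ng) incubated with 10 uM ATP and specific substrate for 1 h at 25° C in 40 mM Tris-HCl pH 7.4, 20 mM MgCl2, 0.5 mg/mL BSA, 50 uM DTT. ADP formation read by ADP-Glo luminescence; IC50 (nM) versus solvent control, triplicate.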

A further test has as its target LRRK2 (G2019S) (Homo sapiens, UniProt Q5S007, G2019S). In words: LRRK2 G2019S enzyme inhibition, ADP-Glo kinase assay. The class given is biochemical. On the set-up: purchased SignalChem L10-12GG. In outline: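 Purified human LRRK2 G2019S (16 ng) with 25 μM ATP and 0.2 μg substrate, 2 h at 25° C in 40 mM Tris-HCl pH 7.4, 20 mM MgCl2, 0.5 mg/ml BSA, 50 μM DTT; compound at 12 final concentrations from 50 μM downward. ADP-Glo luminescence versus solvent control gave IC50 (nM).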

LRRK2 (G2019S), sequence (Q5S007 970-2527 G2019S limits assumed): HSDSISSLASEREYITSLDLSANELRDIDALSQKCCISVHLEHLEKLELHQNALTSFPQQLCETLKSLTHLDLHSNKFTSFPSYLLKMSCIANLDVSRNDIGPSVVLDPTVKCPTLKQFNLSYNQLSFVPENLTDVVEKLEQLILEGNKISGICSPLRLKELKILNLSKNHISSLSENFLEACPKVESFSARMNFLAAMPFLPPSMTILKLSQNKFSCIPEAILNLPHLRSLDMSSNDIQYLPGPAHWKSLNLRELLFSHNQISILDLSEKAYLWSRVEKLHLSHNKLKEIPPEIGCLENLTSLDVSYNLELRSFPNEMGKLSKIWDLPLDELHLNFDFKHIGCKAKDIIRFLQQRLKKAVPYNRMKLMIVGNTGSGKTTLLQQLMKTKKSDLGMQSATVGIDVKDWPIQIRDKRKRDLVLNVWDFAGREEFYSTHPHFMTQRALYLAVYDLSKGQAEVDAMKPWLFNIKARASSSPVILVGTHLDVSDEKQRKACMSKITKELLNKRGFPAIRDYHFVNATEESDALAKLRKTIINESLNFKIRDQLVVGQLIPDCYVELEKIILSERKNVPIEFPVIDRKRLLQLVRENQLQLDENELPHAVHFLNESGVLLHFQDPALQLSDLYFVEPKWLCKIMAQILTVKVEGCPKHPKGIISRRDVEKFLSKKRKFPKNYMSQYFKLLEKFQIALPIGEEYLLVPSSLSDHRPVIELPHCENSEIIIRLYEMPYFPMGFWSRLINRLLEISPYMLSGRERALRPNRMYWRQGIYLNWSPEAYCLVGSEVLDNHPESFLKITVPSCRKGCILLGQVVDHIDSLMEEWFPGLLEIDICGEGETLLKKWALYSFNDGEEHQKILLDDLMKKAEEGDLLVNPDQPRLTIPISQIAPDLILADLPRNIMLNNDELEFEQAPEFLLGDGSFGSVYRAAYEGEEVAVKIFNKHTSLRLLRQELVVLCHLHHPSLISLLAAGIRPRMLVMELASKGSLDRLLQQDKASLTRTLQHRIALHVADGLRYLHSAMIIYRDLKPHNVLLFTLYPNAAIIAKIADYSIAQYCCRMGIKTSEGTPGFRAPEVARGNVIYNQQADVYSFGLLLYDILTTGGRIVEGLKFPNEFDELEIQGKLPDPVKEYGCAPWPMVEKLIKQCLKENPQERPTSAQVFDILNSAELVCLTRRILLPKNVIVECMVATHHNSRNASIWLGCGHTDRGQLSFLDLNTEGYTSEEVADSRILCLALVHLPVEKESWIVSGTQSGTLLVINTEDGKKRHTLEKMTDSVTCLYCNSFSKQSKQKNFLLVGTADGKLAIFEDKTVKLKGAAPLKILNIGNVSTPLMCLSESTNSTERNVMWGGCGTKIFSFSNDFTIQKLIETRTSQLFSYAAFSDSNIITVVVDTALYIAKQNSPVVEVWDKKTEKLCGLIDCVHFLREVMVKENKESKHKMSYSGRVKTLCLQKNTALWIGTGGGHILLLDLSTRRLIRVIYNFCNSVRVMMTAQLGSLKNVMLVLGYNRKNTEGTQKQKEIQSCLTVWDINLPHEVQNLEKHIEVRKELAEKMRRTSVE
T1 sequence (P49759 129-484 limits assumed): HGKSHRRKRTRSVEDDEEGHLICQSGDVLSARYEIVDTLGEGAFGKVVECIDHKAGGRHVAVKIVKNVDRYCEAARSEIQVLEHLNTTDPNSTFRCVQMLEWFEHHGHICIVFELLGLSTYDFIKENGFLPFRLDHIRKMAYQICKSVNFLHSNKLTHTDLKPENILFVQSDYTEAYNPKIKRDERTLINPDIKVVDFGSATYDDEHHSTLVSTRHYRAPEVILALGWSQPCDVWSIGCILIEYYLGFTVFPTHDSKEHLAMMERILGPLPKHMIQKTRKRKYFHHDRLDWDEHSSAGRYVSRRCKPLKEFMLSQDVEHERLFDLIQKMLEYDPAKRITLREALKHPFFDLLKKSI
LRRK2, sequence (Q5S007 970-2527 limits assumed): as the sequence (Q5S007 970-2527 G2019S limits assumed) above, with S1050G counted along it

On to `CCNc1cc(Nc2ccc(C(=O)N3CC[C@H](N4CCOCC4)C3)c3c2OCC3)nc2[nH]cc(C(F)(F)F)c12` [Example 215, (S)-(7-((4-(ethylamino)-3-(trifluoromethyl)-1H-pyrrolo[2,3-b]pyridin-6-yl)amino)-2,3-dihydrobenzofuran-4-yl)(3-morpholinopyrrolidin-1-yl)methanone], for which the pIC50 (on LRRK2; on human GST-CLK1 (129-end); in test [1]; against LRRK2 (G2019S)) was above 7.00 each time. In addition, in the test on human DYRK1A and Tau, the inhibition at 0.25 µM worked out at 30%. Also, the inhibition at 0.5 µM in the test on human DYRK1A and Tau amounted to 70.8%. In addition, in the test with human DYRK1A and Tau, the inhibition at 1 µM is 82%.

For the compound `CNc1cc(Nc2ccc(S(=O)(=O)N3CCC(N4C[C@@H]5C[C@H]4CO5)CC3)cc2OC)nc2[nH]cc(C(F)(F)F)c12` [Example 242, N^6-(4-((4-((1S,4S)-2-oxa-5-azabicyclo[2.2.1]heptan-5-yl)piperidin-1-yl)sulfonyl)-2-methoxyphenyl)-N^4-methyl-3-(trifluoromethyl)-1H-pyrrolo[2,3-b]pyridine-4,6-diamine], the pIC50 (on LRRK2; on human GST-CLK1 (129-end); in test [1]; at LRRK2 (G2019S)) was above 7.00 each time. In addition, the inhibition at 0.25 µM in the test with human DYRK1A and Tau amounted to 49.8%. Further, the inhibition at 0.5 µM with human DYRK1A and Tau was found to be 77.2%. In addition, the inhibition at 1 µM in the test with human DYRK1A and Tau was 108%.

As for `CCNc1cc(Nc2ccc(C(=O)N3CCN(C4CC4)CC3)c3c2OCC3)nc2[nH]cc(C(F)(F)F)c12` [Example 250, (4-cyclopropylpipe razin-1-yl)(7-((4-(ethylamino)-3-(trifluoromethyl)-1H-pyrrolo[2,3-b]pyridin-6-yl)amino)-2,3-dihydrobenzofuran-4-yl)methanone], in the test on human DYRK1A and Tau, the inhibition at 0.25 µM worked out at 34%, the inhibition at 0.5 µM turned out to be 59.8% and the inhibition at 1 µM turned out to be 82.8%. For the same compound, on human GST-CLK1 (129-end), the pIC50 is above 7.00. For the same compound, the pIC50 in test [1] was 6.52 to 7.00. Moreover, the pIC50 on LRRK2 (G2019S) was 6.52 to 7.00.

As to `C=CCNc1cc(Nc2ccc(C(=O)N3CCC(N4CCOCC4)CC3)c3c2OCC3)nc2[nH]cc(C(F)(F)F)c12` [Example 255, (7-((4-(allylamino)-3-(trifluoromethyl)-1H-pyrrolo[2,3-b]pyridin-6-yl)amino)-2,3-dihydrobenzofuran-4-yl)(4-morpholinopiperidin-1-yl)methanone], in the test on human DYRK1A and Tau, the inhibition at 0.25 µM was 47.7%, the inhibition at 0.5 µM turned out to be 89.2% and the inhibition at 1 µM is 104%. Also, the pIC50 against human GST-CLK1 (129-end) was above 7.00. Further, the pIC50 in test [1] is above 7.00. For the same compound, at LRRK2 (G2019S), the pIC50 is above 7.00.

Take `COc1cc(S(=O)(=O)N2CCOCC2)ccc1Nc1cc(NC2CCCCC2)c2c(Cl)c[nH]c2n1` [Example 70, 3-chloro-N^4-cyclohexyl-N^6-(2-methoxy-4-(morpholinosulfonyl)phenyl)-1H-pyrrolo[2,3-b]pyridine-4,6-diamine]: the pIC50 (at LRRK2; against human GST-CLK1 (129-end); in test [1]; on LRRK2 (G2019S)) was 6.00 to 6.52 in each case.

Regarding `COCCNc1cc(Nc2ccc(C(=O)N3CCOCC3)c3c2OCCO3)nc2[nH]cc(C(F)(F)F)c12` [Example 158, (8-((4-((2-methoxyethyl)amino)-3-(trifluoromethyl)-1H-pyrrolo[2,3-b]pyridin-6-yl)amino)-2,3-dihydrobenzo[b] [1,4]dioxin-5-yl)(morpholino) methanone], the pIC50 (against LRRK2; against human GST-CLK1 (129-end); in test [1]; against LRRK2 (G2019S)) was above 7.00 in each case.

For the compound `CCNc1cc(Nc2ccc(C(=O)N3CCOCC3)c3c2OCC3)nc2[nH]cc(C(F)(F)F)c12` [Example 89, (7-((4-(ethylamino)-3-(trifluoromethyl)-1H-pyrrolo[2,3-b]pyridin-6-yl)amino)-2,3-dihydrobenzofuran-4-yl)(morpholino) methanone], the pIC50 (on LRRK2; against human GST-CLK1 (129-end); in test [1]; against LRRK2 (G2019S)) was above 7.00 throughout.

In the case of `COc1cc(S(=O)(=O)N2CCC(N3CCOCC3)CC2)ccc1Nc1cc(NC2CCCCC2)c2c(C(F)(F)F)c[nH]c2n1` [Example 183, N^4-cyclohexyl-N^6-(2-methoxy-4-((4-morpholinopiperidin-1-yl)sulfonyl)phenyl)-3-(trifluoromethyl)-1H-pyrrolo[2,3-b]pyridine-4,6-diamine], the pIC50 (against LRRK2; at human GST-CLK1 (129-end); in test [1]; against LRRK2 (G2019S)) was 6.00 to 6.52 each time.

Regarding `COc1cc(S(C)(=O)=O)ccc1Nc1cc(NC2CCC2)c2c(C#N)c[nH]c2n1` [Example 120, 4-(cyclobutylamino)-6-((2-methoxy-4-(methylsulfonyl)phenyl)amino)-1H-pyrrolo[2,3-b]pyridine-3-carbonitrile], the pIC50 is above 7.00 on LRRK2, 6.00 to 6.52 on human GST-CLK1 (129-end), 6.00 to 6.52 in test [1] and 6.52 to 7.00 at LRRK2 (G2019S).

Turning to `CCNc1cc(Nc2ccc(S(C)(=O)=O)cc2OC)nc2[nH]cc(C#N)c12` [Example 124, 4-(ethylamino)-6-((2-methoxy-4-(methylsulfonyl)phenyl)amino)-1H-pyrrolo[2,3-b]pyridine-3-carbonitrile], the pIC50 against LRRK2 is above 7.00; against human GST-CLK1 (129-end), 6.00 to 6.52; in test [1], 6.00 to 6.52; against LRRK2 (G2019S), 6.52 to 7.00.

Take `COc1cc(S(C)(=O)=O)ccc1Nc1cc(NC(C)C)c2cc[nH]c2n1` [Example 28, N^4-isopropyl-N^6-(2-methoxy-4-(methylsulfonyl)phenyl)-1H-pyrrolo[2,3-b]pyridine-4,6-diamine]: the pIC50 on LRRK2 is 6.52 to 7.00; at human GST-CLK1 (129-end), 6.00 to 6.52; in test [1], 6.00 to 6.52; against LRRK2 (G2019S), 6.00 to 6.52.

As to `CCNc1cc(Nc2ccc(P(C)(=O)N3CCC(N4CCOCC4)CC3)cc2OC)nc2[nH]cc(C(F)(F)F)c12` (stereo not shown) [Example 208, (4-((4-(ethylamino)-3-(trifluoromethyl)-1H-pyrrolo[2,3-b]pyridin-6-yl)amino)-3-methoxyphenyl) (methyl)(4-morpholinopiperidin-1-yl)phosphine oxide], the pIC50 against LRRK2 was above 7.00; at human GST-CLK1 (129-end), above 7.00; in test [1], 6.52 to 7.00; at LRRK2 (G2019S) it was above 7.00.

On to `CCNc1cc(Nc2ccc(C(=O)N3CCC(N4CCOCC4)CC3)c3c2OCCO3)nc2[nH]cc(C(F)(F)F)c12` [Example 161, (8-((4-(ethylamino)-3-(trifluoromethyl)-1H-pyrrolo[2,3-b]pyridin-6-yl)amino)-2,3-dihydrobenzo[b] [1,4]dioxin-5-yl)(4-morpholinopiperidin-1-yl)methanone], for which the pIC50 at LRRK2 is above 7.00; against human GST-CLK1 (129-end), above 7.00; in test [1] it was 6.52 to 7.00; against LRRK2 (G2019S) it was above 7.00.

Take `CCCNc1cc(Nc2ccc(S(C)(=O)=O)cc2OC)nc2[nH]cc(C#N)c12` [Example 125, 6-((2-methoxy-4-(methylsulfonyl)phenyl)amino)-4-(propylamino)-1H-pyrrolo[2,3-b]pyridine-3-carbonitrile]: the pIC50 on LRRK2 was above 7.00; against human GST-CLK1 (129-end), 6.00 to 6.52; in test [1], 6.00 to 6.52; against LRRK2 (G2019S) it was 6.52 to 7.00.

In the case of `O=C(c1ccc(Nc2cc(NC3CC3)c3c(C(F)(F)F)c[nH]c3n2)c2c1CCO2)N1CCOCC1` [Example 53, (7-((4-(cyclopropylamino)-3-(trifluoromethyl)-1H-pyrrolo[2,3-b]pyridin-6-yl)amino)-2,3-dihydrobenzofuran-4-yl)(morpholino) methanone], the pIC50 (at LRRK2; at human GST-CLK1 (129-end); in test [1]; on LRRK2 (G2019S)) was above 7.00 in each case.
